Measured values taken from patent US20250115943A1, “SYSTEM AND METHOD FOR ANTIMICROBIAL SUSCEPTIBILITY TESTING” (priority 2023, published 2025).
Values after ≈ are worked out from the molar mass of the structure shown. Read-outs that look alike come from different tables or passages of the source.

Key:
K. pneumoniae LSI 4552 [1] = assay: reference broth microdilution (rBMD); assay type: cell-based; conditions: Klebsiella pneumoniae, LSI4552
Experimental: (§1) Following optimization of the BLAST assay, two other tests were performed in which 12 antibiotics (covering different classes) and 8 bacterial strains (Gram-positive and Gram-negative) were assayed using the same method as described above. Different bacterial strains were tested against different antibiotics and for each pair tested, the BLAST MIC value was compared to the CLSI QC range where available, or to the reference broth microdilution (rBMD) MIC which was determined in parallel with the BLAST assay following the CLSI protocols (see references [9]).

K. pneumoniae LSI CT1045 [2] = assay: reference broth microdilution (rBMD); assay type: cell-based; conditions: Klebsiella pneumoniae, LSICT1045
Experimental: as §1

P. mirabilis LSI 4933 [3] = assay: reference broth microdilution (rBMD); assay type: cell-based; conditions: Proteus mirabilis, LSI4933
Experimental: as §1

E. coli ATCC 25922 [4] = conditions: CLSI M100-Ed34E, cited from earlier work
E. coli LSI 770 [5] = assay: reference broth microdilution (rBMD); assay type: cell-based; conditions: for MIC: Escherichia coli, LSI770
Experimental: as §1
(§2) The inoculated urine cultures were incubated overnight at 35+2° C. Each urine culture was centrifuged, and the sediment used to prepare the BLAST inoculum of 5.0×10^5 CFU/mL to start the assay as described in the protocols section. […] The spiked urine samples were tested in parallel with isolates and the resultant BLAST MIC values were compared. In addition to the BLAST test, all the samples were also tested using the reference broth microdilution (rBMD) method and the MIC values were compared.

P. mirabilis LSI 4698 [6] = assay: reference broth microdilution (rBMD); assay type: cell-based; conditions: Proteus mirabilis, LSI4698
K. pneumoniae LSI 4552 [7] = assay: CytoSPAR BLAST antibiotic susceptibility test; assay type: cell-based; conditions: for MIC: Klebsiella pneumoniae, LSI4552, Table 7; for S, I, R: susceptible, intermediate, resistant category
From the text: (§3) The disclosed technology, which is referred to as the CytoSPAR BLAST (Bacteria Labeling Antibiotic Susceptibility Test) system, is used to quantitatively assess bacterial minimal inhibitory concentration of antibiotics for in vitro susceptibility testing. Used as an aid in diagnosis for clinicians in determining potential treatment options for patients suspected of having a microbial infection, BLAST is intended to determine susceptibility of microorganisms to the listed antibiotics (or other antimicrobials) according to manufacturer's standards. The system is intended for use with clinical isolates from liquid culture and colonies grown on agar (solid medium) or directly from urine samples. Certain implementations of BLAST determine antibiotic susceptibility for a wide range of bacteria obtained from various types of patient samples, including samples from individuals suffering from urinary tract infections. The disclosed technology includes a high-throughput assay that directly detects bacterial susceptibility to a library of frequently used antibiotics and covers both Gram-negative and Gram-positive bacteria.
(§4) The test incorporates a non-canonical amino acid (ncAA) into newly produced proteins. The incorporated ncAA includes a reactive group which allows a specific modification and detection of the living bacteria. The assay involves bacterial incorporation of the ncAA, a chemical reaction between a reactive group and a fluorophore-tagged ligand, and detection of the newly fluorescent-tagged bacteria using a fluorescent plate reader or functionally similar device. The ncAA is added to bacterial growth media and is incorporated into newly synthesized bacterial proteins. The reactive groups on the ncAA are not naturally found in bacteria and act as a specific reactive group for bacteria undergoing active protein synthesis. […] The entire process is performed in a microtiter filter plate for high-throughput scale-up. Alternatively, a normal 96-well plate can also be used in which case centrifugation is used to wash the plate instead of filtration.
(§5) In an example embodiment, bacterial samples are first diluted and incubated in acclimatization media. After treatment with one or more antimicrobials, the ncAA is added and is taken up by living bacteria during protein biosynthesis in a process called labeling. […] The Click-Chemistry reaction between the alkyne group of the ncAA and the azide group of the fluorophore-tagged ligand requires the presence of copper in the reduced state-copper (I). In other implementations, the functional groups of the click chemistry reaction can be changed so that the ncAA has the azide group and the dye has the alkyne group. […] Other reducing agents may be used in the BLAST assay, for example, aldoses (sugars) including glyceraldehyde, glucose, and ribose to replace sodium ascorbate. Likewise, alternate chelators may be used (e.g., histidine in place of BTTAA). In some implementations, metal-free click chemistry reactions are performed without using copper.
(§6) Using the BLAST system, tests can be performed on isolates or direct urine samples. Isolates may be from urine, blood, or other body fluids. Isolated bacteria may be either Gram-positive or Gram-negative. In an example implementation, living bacterial samples in acclimatization media (Buffer A) are distributed in a microtiter filter plate, wherein certain predetermined wells include antibiotics of interest at different concentrations. These antibiotics are arrayed with increasing concentrations in adjacent wells so that the bacterial response can be measured against each specific concentration. The response is measured quantitatively, and a value that corresponds to the ability of the bacteria to metabolize and grow is measured.

K. pneumoniae LSI CT1045 [8] = assay: CytoSPAR BLAST antibiotic susceptibility test; assay type: cell-based; conditions: for S, I, R: susceptible, intermediate, resistant category
From the text: as §3, §4, §5, §6

P. mirabilis LSI 4698 [9] = assay: CytoSPAR BLAST antibiotic susceptibility test; assay type: cell-based; conditions: for MIC: Proteus mirabilis, LSI4698, Table 7; for S, I, R: susceptible, intermediate, resistant category
From the text: as §3, §4, §5, §6

P. mirabilis LSI 4933 [10] = assay: CytoSPAR BLAST antibiotic susceptibility test; assay type: cell-based; conditions: for MIC: Proteus mirabilis, LSI4933, Table 7; for S, I, R: susceptible, intermediate, resistant category
From the text: as §3, §4, §5, §6

E. coli LSI 770 [11] = assay: CytoSPAR BLAST antibiotic susceptibility test; assay type: cell-based; conditions: for S, I, R: susceptible, intermediate, resistant category; for MIC: Escherichia coli
From the text: as §3, §4, §5, §6

S. aureus ATCC 29213 [12] = assay: CytoSPAR BLAST antibiotic susceptibility test; assay type: cell-based; conditions: for S, I, R: susceptible, intermediate, resistant category; for MIC: Staphylococcus aureus
From the text: as §3, §4, §5, §6

E. coli ATCC 25922 [13] = assay: CytoSPAR BLAST antibiotic susceptibility test; assay type: cell-based; conditions: for MIC: Escherichia coli; for S, I, R: susceptible, intermediate, resistant category
From the text: as §3, §4, §5, §6

S. aureus ATCC 29213 [14] = conditions: CLSI M100-Ed34E; cited from earlier work
S. aureus ATCC 29213 [15] = assay: reference broth microdilution (rBMD); assay type: cell-based
Experimental: as §1, §2

[16] = LSI770, Table 7, E. coli LSI 770, read-out: MIC BLAST
[17] = ATCC29213, S. aureus ATCC 29213, 5×10^6 CFUs/mL, cutoff 0.8, FIGS. 19-21, read-out: BLAST MIC
[18] = ATCC29213, Table 7, S. aureus ATCC 29213, read-out: MIC BLAST
[19] = ATCC29213, Table 8, S. aureus ATCC 29213, isolates, 5 × 10^5 CFU/mL, read-out: MIC BLAST Isolates
[20] = ATCC29213, Table 8, S. aureus ATCC 29213, spiked urine sample, 5 × 10^5 CFU/mL, read-out: MIC BLAST Spiked Urine
[21] = ATCC25922, Table 8, isolates, 5 × 10^5 CFU/mL, read-out: MIC BLAST Isolates
[22] = ATCC25922, Table 8, spiked urine sample, 5 × 10^5 CFU/mL, read-out: MIC BLAST Spiked Urine
[23] = ATCC29213, read-out: MIC BLAST, Table 6, S. aureus ATCC 29213, optimized BLAST, cutoff 0.8

Compound | MIC (K. pneumoniae LSI 4552 [1]) | MIC (K. pneumoniae LSI CT1045 [2]) | MIC (P. mirabilis LSI 4933 [3]) | MIC CLSI QC Range (E. coli ATCC 25922 [4]) | MIC (E. coli LSI 770 [5]) | MIC (P. mirabilis LSI 4698 [6]) | MIC (K. pneumoniae LSI 4552 [7]) | S, I, R (K. pneumoniae LSI 4552 [7]) | S, I, R (K. pneumoniae LSI CT1045 [8]) | MIC (P. mirabilis LSI 4698 [9]) | S, I, R (P. mirabilis LSI 4698 [9]) | MIC (P. mirabilis LSI 4933 [10]) | S, I, R (P. mirabilis LSI 4933 [10]) | S, I, R (E. coli LSI 770 [11]; E. coli LSI 770) | MIC (E. coli LSI 770 [11]; [16]) | S, I, R (S. aureus ATCC 29213 [12]; S. aureus ATCC 29213) | MIC (S. aureus ATCC 29213 [12]; [17]) | MIC (S. aureus ATCC 29213 [12]; [18]) | MIC (S. aureus ATCC 29213 [12]; [19]) | S, I, R (E. coli ATCC 25922 [13]) | further results
C[C@H]1c2cccc(O)c2C(=O)C2=C(O)[C@]3(O)C(=O)C(C(N)=O)=C(O)[C@@H](N(C)C)[C@@H]3[C@@H](O)[C@@H]21 [Doxycycline, doxycycline] | 2 µg/mL (≈ 4.5 µM) | 8 µg/mL (≈ 18 µM) | 4 µg/mL (≈ 9 µM) | 0.5 to 2.0 µg/mL | 64 µg/mL (≈ 144 µM) | 32 µg/mL (≈ 72 µM) | 1 µg/mL (≈ 2.25 µM) | Susceptible | Resistant | 4.4 µg/mL (≈ 9.9 µM) | Susceptible | 1.1 µg/mL (≈ 2.48 µM) | Susceptible | Resistant | 71 µg/mL (≈ 160 µM) | Susceptible | < 0.0625 µg/mL | 0.02 µg/mL (≈ 0.045 µM) | 0.02 µg/mL (≈ 0.045 µM) | Susceptible | MIC CLSI QC Range (E. coli ATCC 25922 [4]; listed as doxycycline): 0.5 to 2 µg/mL; MIC rBMD (E. coli LSI 770 [5]; Table 8, E. coli LSI 770, geometric mean MIC rounded to nearest 2-fold dilution, n = 3): 64 µg/mL (≈ 144 µM); MIC (E. coli LSI 770 [11]; LSI770, Table 8, E. coli LSI 770, isolates, 5 × 10^5 CFU/mL, read-out: MIC BLAST Isolates): 71 µg/mL (≈ 160 µM); MIC (E. coli LSI 770 [11]; LSI770, Table 8, E. coli LSI 770, spiked urine sample, 5 × 10^5 CFU/mL, read-out: MIC BLAST Spiked Urine): 71 µg/mL (≈ 160 µM); MIC (S. aureus ATCC 29213 [12]; [20]): 0.02 µg/mL (≈ 0.045 µM); MIC (E. coli ATCC 25922 [13]; ATCC25922, Table 7, read-out: MIC BLAST): 0.14 µg/mL (≈ 0.315 µM); MIC (E. coli ATCC 25922 [13]; [21]): 0.14 µg/mL (≈ 0.315 µM); MIC (E. coli ATCC 25922 [13]; [22]): 0.28 µg/mL (≈ 0.63 µM)
CO[C@@]1(NC(=O)Cc2cccs2)C(=O)N2C(C(=O)O)=C(COC(N)=O)CS[C@@H]21 [Cefoxitin, cefoxitin] |  |  |  |  |  |  |  |  |  |  |  |  |  |  |  | Susceptible |  |  |  | Susceptible | MIC (S. aureus ATCC 29213 [12]; ATCC29213, Table 6, S. aureus ATCC 29213, optimized BLAST, cutoff 0.8, read-out: MIC BLAST): 1 µg/mL (≈ 2.34 µM); MIC (E. coli ATCC 25922 [13]; ATCC25922, Table 6, optimized BLAST, cutoff 0.8, read-out: MIC BLAST): 4 µg/mL (≈ 9.36 µM)
CC1=C(C(=O)O)N2C(=O)[C@@H](NC(=O)[C@H](N)c3ccccc3)[C@H]2SC1 [Cephalexin, cephalexin] |  |  |  | 1.0 to 4.0 µg/mL |  |  |  |  |  |  |  |  |  |  |  | Susceptible |  |  |  | Susceptible | MIC CLSI QC Range (S. aureus ATCC 29213 [14]): 0.25 to 1 µg/mL; MIC (S. aureus ATCC 29213 [12]; [23]): 1 µg/mL (≈ 2.88 µM); MIC (E. coli ATCC 25922 [13]; ATCC25922, read-out: MIC BLAST, Table 6, optimized BLAST, cutoff 0.8): 16 µg/mL (≈ 46.1 µM)
Cc1nnc(SCC2=C(C(=O)O)N3C(=O)[C@@H](NC(=O)Cn4cnnn4)[C@H]3SC2)s1 [Cefazolin, cefazolin] | 8 µg/mL (≈ 17.6 µM) | > 256 µg/mL | 8 µg/mL (≈ 17.6 µM) |  | > 256 µg/mL | 16 µg/mL (≈ 35.2 µM) | 2 µg/mL (≈ 4.4 µM) | Susceptible | Resistant | 4.4 µg/mL (≈ 9.68 µM) | Susceptible | 4.4 µg/mL (≈ 9.68 µM) | Susceptible | Resistant | > 142 µg/mL | Susceptible | < 0.125 µg/mL | 0.14 µg/mL (≈ 0.308 µM) | 0.14 µg/mL (≈ 0.308 µM) | Susceptible | MIC (S. aureus ATCC 29213 [15]; Staphylococcus aureus, ATCC29213): 0.5 µg/mL (≈ 1.1 µM); MIC rBMD (S. aureus ATCC 29213 [15]; Table 8, S. aureus ATCC 29213, geometric mean MIC rounded to nearest 2-fold dilution, n = 3): 0.5 µg/mL (≈ 1.1 µM); MIC (K. pneumoniae LSI CT1045 [8]; Klebsiella pneumoniae, LSICT1045, Table 7): > 142 µg/mL; MIC (E. coli LSI 770 [11]; LSI770, read-out: MIC BLAST Isolates): > 142 µg/mL; MIC (E. coli LSI 770 [11]; LSI770, read-out: MIC BLAST Spiked Urine): > 142 µg/mL; BLAST MIC (S. aureus ATCC 29213 [12]; S. aureus ATCC 29213, FIG. 19): < 0.125 µg/mL; MIC (S. aureus ATCC 29213 [12]; [20]): 0.28 µg/mL (≈ 0.616 µM); MIC (S. aureus ATCC 29213 [12]; [23]): 0.125 µg/mL (≈ 0.275 µM); BLAST MIC (E. coli ATCC 25922 [13]; 5×10^6 CFUs/mL, cutoff 0.8, FIGS. 16-18): 2.0 µg/mL; MIC (E. coli ATCC 25922 [13]; [21]): 4.44 µg/mL (≈ 9.77 µM); MIC (E. coli ATCC 25922 [13]; [22]): 1.11 µg/mL (≈ 2.44 µM)
